Assay results reported in patent publication US20240139148A1, “COMPOSITIONS AND METHODS FOR TREATING NON-TUBERCULOUS MYCOBACTERIAL INFECTIONS” (priority 2021, published 2024).
≈ marks a conversion by molar mass, not a printed value. Where two headings read alike, the source gives them in different places.

Legend:
WT Mabs ATCC 19977 [1] = type: cell-based, M. abscessus subsp. abscessus; conditions: for tolerance to antibiotics under hypoxia: 7 d treatment, AMK 64, AZI 32, CFZ 2, IMI 32 mg L^−1; for decrease in viability compared to DMSO-treated controls: WT strain, 40 μM, 7 d of hypoxia; for tolerance of DosS inhibitor-treated cells to AZI: AZI for 7 d under hypoxia; for tolerance of DosS inhibitor-treated cells to CFZ: CFZ for 7 d under hypoxia
[2] = tested on: MabsΔdosRS complemented with dosRS; type: cell-based, M. abscessus subsp. abscessus; conditions: for tolerance to antibiotics under hypoxia: dosRS complemented mutant, 7 d treatment, AMK 64, AZI 32, CFZ 2, IMI 32 mg L^−1; for decrease in viability compared to DMSO-treated controls: dosRS complemented strain, 40 μM, 7 d of hypoxia
MabsΔdosRS [3] = type: cell-based, M. abscessus subsp. abscessus; conditions: for decrease in survival compared to the DMSO-treated mutant control: 7 d under hypoxia, AMK 64 mg L^−1, AZI 32 mg L^−1, CFZ 2 mg L^−1; for susceptibility of the dosRS mutant to AMI or AZI after DosS inhibitor treatment: 40 μM DosS inhibitor, AMI 64 mg L^−1, AZI 32 mg L^−1, 7 d hypoxia; for decrease in viability compared to DMSO control: 40 μM, 7 d of hypoxia
Mabs ATCC 19977 = assay: MIC determination (resazurin blue test); type: cell-based, M. abscessus subsp. abscessus; conditions: Mycobacteroides abscessus, ATCC19977, 120 h, read-out: Minimum Inhibitory Concentrations (MICs)
WT Mabs ATCC 19977 [4] = assay: Biofilm formation assay in SCFM (crystal violet staining); type: cell-based, M. abscessus subsp. abscessus; conditions: Mycobacteroides abscessus, ATCC19977, 120 h, read-out: IC50 values (required to inhibit 50% of biofilm formation)
Mabs ATCC 19977 biofilms = assay: Biofilm dispersal assay on established 4-d old biofilms; type: cell-based, M. abscessus subsp. abscessus; conditions: 24 h in PBS
[5] = tested on: NO-signaling (dosR induction); assay: NO signaling: RT-qPCR of dosR after Spermine NONOate; type: cell-based, M. abscessus subsp. abscessus; conditions: 50 μM inhibitor for 1 h, then Spermine NONOate 50 μM for 40 min
Experimental: FIG. 18: Effect of DosS inhibitors on NO signaling. Mabs ATCC 19977 was grown to OD ˜0.3 in 7H9-ADC-Tween 80, treated for 1 h with either DMSO (control) or 50 μM of DosS inhibitors, followed by addition of Spermine NONOate (50 μM final concentration). […] Ratios of dosR/sigA mRNA are means±SD (n=3 RNA extractions and RT-qPCR reactions).
Since the DosRS pathway of MABSC has been reported to be induced by NO, RT-qPCR was used to determine whether ART, OZ439, and MSU-39446 inhibited the induction of DosR-regulated genes in WT Mabs ATCC 19977 following treatment with spermine/nitric oxide (Spermine/NO) for 40 min.

[6] = molecular target: Mabs ATCC 19977 DosS (MAB_3890c) (Mycobacteroides abscessus, UniProt B1MH83); assay: UV-visible spectroscopy assay of DosS heme redox status; type: biochemical, M. abscessus subsp. abscessus; conditions: 100 μM; DTN-reduced DosS (427 nm); at time 0
Excerpt: FIG. 7: Inhibition of the sensor kinase heme of DosS by ART, OZ439 and MSU-39446. UV-visible spectra of DosS showing treatment with dithionite (DTN) reduces the heme, which is the “on” state for the kinase. ART, OZ439 and MSU-39446, but not the degassed DMSO control, oxidize the heme.
UV-visible spectroscopy assay and mass spectrometry. A recombinant form of Mabs ATCC 19977 DosS (MAB_3890c) was produced in E. coli BL21(DE3) using the pET14b expression system (Novagen, Madison, WI) and pGro7, and purified essentially as described. Briefly, His-DosS expression was induced by isopropyl-thio-β-D-galactopyranoside (IPTG, 0.5 mM) at 16° C. for 20 h. The cell pellet was suspended in lysis buffer (50 mM sodium phosphate (pH 7.6), 10% glycerol, 200 mM sodium chloride, 1% Triton X-100, 0.5 mg mL^−1 lysozyme, 0.1 mg mL^−1 PMSF) and the cell suspension was incubated with shaking at 37° C. for 30 min prior to lysis using a French press (1400-1800 PSI). The soluble extract was applied to a Co^2+ column (Clontech) and washed with washing buffers (with or without 20 mM imidazole in 50 mM sodium phosphate (pH 7.6), 10% glycerol and 500 mM sodium chloride). […] The absorption spectrum of Mabs DosS ([…]) was analyzed as previously described. […] The UV-visible spectra were recorded for kinetic changes over 2 h using a UV-1800 spectrophotometer (Shimadzu). […]

MabsΔdosRS [7] = assay: RNA-seq transcriptional profiling under microaerophilic conditions, dosRS KO mutant; conditions: 20 μM
WT Mabs ATCC 19977 [8] = assay: Acute SCID mouse model of MABSC infection; conditions: SCID mice
in vivo = conditions: SCID, mouse, po, 50 mg/kg
Experimental: (A) Exposure of OZ439 in Mabs ATCC 19977-infected SCID mice. In the acute model, mice received OZ439 orally (200 mg/kg) every other d for 14 d. In the chronic model, mice received OZ439 orally (50 mg/kg) every other d for 28 d. Shown are the averages (±SD) of lung and plasma concentrations 2 and 48 hs after the last dosing. Two mice were used per time point in the acute model. Four mice were used per time point in the chronic model.
(A) Exposure of OZ277 in Mabs ATCC 19977-infected SCID mice. Mice received OZ277 orally (200 mg/kg) daily for 14 days. Shown are the averages (±SD) of lung and plasma concentrations 2 and 24 hours after the last dosing. Two mice were used per time point.
Four to eight Mabs ATCC 19977-infected SCID mice (2 to 4 mice per time point) having received OZ277 and OZ439 as stand-alone drugs by gavage were ethically euthanized on the last day of the experiment for comparison of drug concentrations in the plasma and lung tissues 2 and 24 h (OZ277) or 2 and 48 h (OZ439) after the last dose. For quantitation of OZ277 and OZ439 by HPLC coupled to tandem mass spectrometry (LC-MS/MS), 1 mg mL^−1 DMSO stock solutions of OZ277 and OZ439 were serially diluted in 50/50 acetonitrile/water to create standard curves and quality control spiking solutions. […] Lung tissues were weighed and homogenized in 19 volumes of PBS containing 1% formic acid to 1 part tissue that was pre-chilled. […]

WT Mabs ATCC 19977 [9] = assay: Chronic SCID mouse model of MABSC infection; conditions: SCID mice; 50 mg/kg gavage every other day for 28 d
[10] = in SCFM and cation-adjusted Mueller-Hinton II media, 5 d at 37° C., higher concentrations not tested due to solubility
[11] = 5 d of growth in SCFM, poly-D-lysine-coated plates
[12] = 200 mg/kg gavage for 14 days (OZ439 every other day)

Sequence of Mabs ATCC 19977 DosS (MAB_3890c) (B1MH83 entry or part of it): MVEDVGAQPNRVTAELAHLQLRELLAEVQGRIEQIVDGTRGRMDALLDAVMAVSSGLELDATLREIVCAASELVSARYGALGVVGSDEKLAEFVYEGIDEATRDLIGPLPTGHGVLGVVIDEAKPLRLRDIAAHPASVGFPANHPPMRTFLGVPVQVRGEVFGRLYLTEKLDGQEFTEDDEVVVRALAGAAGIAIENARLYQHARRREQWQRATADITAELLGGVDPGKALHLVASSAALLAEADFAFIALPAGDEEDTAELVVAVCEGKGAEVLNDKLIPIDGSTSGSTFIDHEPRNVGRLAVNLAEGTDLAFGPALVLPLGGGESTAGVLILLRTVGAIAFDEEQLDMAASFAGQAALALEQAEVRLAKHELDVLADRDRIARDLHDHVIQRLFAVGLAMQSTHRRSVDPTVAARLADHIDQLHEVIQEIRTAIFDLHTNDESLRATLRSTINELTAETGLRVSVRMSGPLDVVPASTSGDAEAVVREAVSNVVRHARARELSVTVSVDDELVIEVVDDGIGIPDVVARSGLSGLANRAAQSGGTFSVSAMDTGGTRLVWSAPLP
Experimental for THP-1 cells: FIG. 21: THP-1 cells were plated at 1×10^6 cells per ml in 24-well plates and treated for 24 hrs. with 10 ng/ml PMA for differentiating to macrophages. PMA medium was removed, and cells were cultured for an additional 24 hrs. Cells were then treated with either nothing, 300 ng/ml LPS or either Mabs ATCC19977 (smooth) or Mabs ATCC19977 (rough)(aka CipR) at an MOI of 5. After 9 h, the medium was removed and replaced with medium containing either nothing or 6 μM of OZ439 in triplicate wells and THP-1 cells were cultured for an additional 30 hr. Supernatants were harvested and assayed for NO production by the Griess Assay. Half the cells were stained with H2DCFDA for ROS analysis and half were stained for macrophage activation markers and analyzed by flow cytometry. Statistical differences between treatment groups were determined by one way ANOVA with Dunnett's multiple comparison test (*=p<0.05; ***=p<0.001; ****=p<0.0001).
THP-1 cells were plated at 1×10^6 cells per ml in 24-well plates and treated for 24 hrs. with 10 ng/ml PMA for differentiating to macrophages. PMA medium was removed, and cells were cultured for an additional 24 hrs. Cells were then treated with either nothing, 300 ng/ml LPS or either Mabs ATCC19977 (smooth) or Mabs ATCC19977 (rough) (aka CipR) at an MOI of 5. After 9 h, the medium was removed and replaced with medium containing either nothing or 6 μM of OZ439 in triplicate wells and THP-1 cells were cultured for an additional 30 hr. Supernatants were harvested and assayed for NO production by the Griess Assay. Half the cells were stained with H2DCFDA for ROS analysis and half were stained for macrophage activation markers and analyzed by flow cytometry. Statistical differences between treatment groups were determined by one way ANOVA with Dunnett's multiple comparison test (*=p<0.05; ***=p<0.001; ****=p<0.0001).

SMILES: NCC[C@H](O)C(=O)N[C@@H]1C[C@H](N)[C@@H](O[C@H]2O[C@H](CN)[C@@H](O)[C@H](O)[C@H]2O)[C@H](O)[C@H]1O[C@H]1O[C@H](CO)[C@@H](O)[C@H](N)[C@H]1O [AMK, amikacin]
- tolerance to antibiotics under hypoxia (WT Mabs ATCC 19977 [1]; WT): fully tolerant to all antibiotics
- tolerance to antibiotics under hypoxia [2]: fully tolerant to all antibiotics
- decrease in survival compared to the DMSO-treated mutant control (MabsΔdosRS [3]): 15%

SMILES: C[C@@H]1CC[C@H]2[C@@H](C)C(=O)O[C@@H]3O[C@@]4(C)CC[C@@H]1[C@]32OO4 [ART, artemisinin]
- MIC (Mabs ATCC 19977; [10]): > 400 µM
- decrease in viability compared to DMSO-treated controls (WT Mabs ATCC 19977 [1]): 1.12 log10 CFU
- tolerance of DosS inhibitor-treated cells to AMK (WT Mabs ATCC 19977 [1]; WT, 40 μM DosS inhibitor, AMK for 7 d under hypoxia): decrease in the tolerance
- tolerance of DosS inhibitor-treated cells to AZI (WT Mabs ATCC 19977 [1]; WT, 40 μM DosS inhibitor): decrease in the tolerance
- tolerance of DosS inhibitor-treated cells to CFZ (WT Mabs ATCC 19977 [1]; WT, 40 μM DosS inhibitor): unaffected
- decrease in viability compared to DMSO-treated controls [2]: 0.64 log10 CFU
- susceptibility of the dosRS mutant to AMI or AZI after DosS inhibitor treatment (MabsΔdosRS [3]): did not significantly enhance the susceptibility
- decrease in viability compared to DMSO control (MabsΔdosRS [3]): did not exhibit any significant decrease in viability
- IC50 (WT Mabs ATCC 19977 [4]; [11]): 800 to 1600 nM
- dispersal of established biofilms (Mabs ATCC 19977 biofilms): none of the compounds dispersed the biofilms
- inhibition of NO-signaling (dosR induction) [5]: none of the inhibitors tested inhibited NO-signaling
- DosS Soret peak position [6]: 421 nm
- number of downregulated genes in the treated mutant (MabsΔdosRS [7]): 22

SMILES: C[C@H]1[C@H](OC(=O)CCC(=O)O)O[C@@H]2O[C@@]3(C)CC[C@H]4[C@H](C)CC[C@@H]1[C@@]24OO3 [AS, artesunate]
- MIC (Mabs ATCC 19977): > 400 µM
- IC50 (WT Mabs ATCC 19977 [4]): 800 to 1600 nM
- dispersal of established biofilms (Mabs ATCC 19977 biofilms): none of the compounds dispersed the biofilms

SMILES: CC[C@H]1OC(=O)[C@H](C)[C@@H](O[C@H]2C[C@@](C)(OC)[C@@H](O)[C@H](C)O2)[C@H](C)[C@@H](O[C@@H]2O[C@H](C)C[C@H](N(C)C)[C@H]2O)[C@](C)(O)C[C@@H](C)CN(C)[C@H](C)[C@@H](O)[C@]1(C)O [AZI, azithromycin]
- tolerance to antibiotics under hypoxia (WT Mabs ATCC 19977 [1]; WT): fully tolerant to all antibiotics
- tolerance to antibiotics under hypoxia [2]: fully tolerant to all antibiotics
- decrease in survival compared to the DMSO-treated mutant control (MabsΔdosRS [3]): 64%

SMILES: CC(C)/N=c1\cc2n(-c3ccc(Cl)cc3)c3ccccc3nc-2cc1Nc1ccc(Cl)cc1 [CFZ, clofazimine]
- tolerance to antibiotics under hypoxia (WT Mabs ATCC 19977 [1]; WT): fully tolerant to all antibiotics
- tolerance to antibiotics under hypoxia [2]: fully tolerant to all antibiotics
- decrease in survival compared to the DMSO-treated mutant control (MabsΔdosRS [3]): 52%

SMILES: CC(C)(N)CNC(=O)C[C@H]1CC[C@]2(CC1)OO[C@]1(O2)C2CC3CC(C2)CC1C3 [OZ277, arterolane]
- MIC (Mabs ATCC 19977; [10]): > 400 µM
- IC50 (WT Mabs ATCC 19977 [4]; [11]): 800 to 1600 nM
- dispersal of established biofilms (Mabs ATCC 19977 biofilms): none of the compounds dispersed the biofilms
- bacterial burdens in lungs and liver, compound by itself (WT Mabs ATCC 19977 [8]; [12]): significantly reduced bacterial burdens
- bacterial burdens in spleen, compound by itself (WT Mabs ATCC 19977 [8]; [12]): significantly reduced bacterial burdens
- adjunct efficacy in combination with antibiotics (AMK, AZI, IMI, CFZ) (WT Mabs ATCC 19977 [8]; 200 mg/kg gavage, vs antibiotics alone): No statistically significant differences

SMILES: c1cc([C@H]2CC[C@]3(CC2)OO[C@]2(O3)C3CC4CC(C3)CC2C4)ccc1OCCN1CCOCC1 [OZ439, artefenomel]
- MIC (Mabs ATCC 19977; [10]): 400 µM (≈ 188 µg/mL)
- decrease in viability compared to DMSO-treated controls (WT Mabs ATCC 19977 [1]): 1.18 log10 CFU
- tolerance of DosS inhibitor-treated cells to AZI (WT Mabs ATCC 19977 [1]; WT, 40 μM DosS inhibitor): decrease in the tolerance
- tolerance of DosS inhibitor-treated cells to CFZ (WT Mabs ATCC 19977 [1]; WT, 40 μM DosS inhibitor): unaffected
- decrease in viability compared to DMSO-treated controls [2]: 0.72 log10 CFU
- susceptibility of the dosRS mutant to AMI or AZI after DosS inhibitor treatment (MabsΔdosRS [3]): did not significantly enhance the susceptibility
- decrease in viability compared to DMSO control (MabsΔdosRS [3]): did not exhibit any significant decrease in viability
- IC50 (WT Mabs ATCC 19977 [4]; [11]): 800 to 1600 nM
- dispersal of established biofilms (Mabs ATCC 19977 biofilms): none of the compounds dispersed the biofilms
- inhibition of NO-signaling (dosR induction) [5]: none of the inhibitors tested inhibited NO-signaling
- concentration at 2 h (in vivo): ~6.2 µM
- concentration at 48 h (in vivo): ~3.9 µM
- reduction in bacterial load in the lung (WT Mabs ATCC 19977 [8]; 200 mg/kg gavage every other day for 14 d): ~1.8 log10
- bacterial burdens in lungs and liver, compound by itself (WT Mabs ATCC 19977 [8]; [12]): significantly reduced bacterial burdens
- efficacy by itself (bacterial loads in lungs, liver and spleen) (WT Mabs ATCC 19977 [9]): comparable to that of all four antibiotics
- expression of macrophage activation markers (THP-1 cells; 6 μM OZ439 alone, non-infected): increased expression of some macrophage activation markers (MHC class II and CD80)
- NO production (Griess Assay) (THP-1 cells; 6 μM, THP-1 infected with Mabs ATCC19977 smooth strain, 30 hr): reverted this activation
- expression of macrophage activation markers (MHC class II, CD80, CD86, CD40) (THP-1 cells; 6 μM, THP-1 infected with Mabs, vs not treated): significant increases in all macrophage activation markers
- ROS (H2DCFDA) (THP-1 cells; 6 μM, absence of Mabs infection): upregulated
- ROS production (H2DCFDA) (THP-1 cells; 6 μM, cultures infected with Mabs (rough or smooth)): decreased
- number of downregulated genes in the treated mutant (MabsΔdosRS [7]): 10
